Source: PubChem BioAssay (NCI)
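Test compounds were applied to cells in 96-well plates for 48 hours at 5 doses. The concentration for full growth arrest is given as TGI.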

Assays:
Test in all cases: inhibition of tumour cell growth, NCI panel, 48 h
IGROV1 ovarian = system: IGROV1 ovarian
SF-539 CNS = system: SF-539 CNS
A498 renal = system: A498 renal
HCT-15 colon = system: HCT-15 colon
CAKI-1 renal = system: CAKI-1 renal
MOLT-4 leukemia = system: MOLT-4 leukemia
SR leukemia = system: SR leukemia
SK-OV-3 ovarian = system: SK-OV-3 ovarian
SNB-19 CNS = system: SNB-19 CNS
BT-549 breast = system: BT-549 breast
MCF7 breast = system: MCF7 breast
NCI-H23 lung = system: NCI-H23 lung
SK-MEL-28 melanoma = system: SK-MEL-28 melanoma
NCI-H226 lung = system: NCI-H226 lung
HT29 colon = system: HT29 colon
NCI-H460 lung = system: NCI-H460 lung
HOP-62 NSCLC = system: HOP-62 NSCLC
SW-620 colon = system: SW-620 colon
SK-MEL-2 melanoma = system: SK-MEL-2 melanoma
U251 CNS = system: U251 CNS
MDA-MB-231 breast = system: MDA-MB-231 breast
TK-10 renal = system: TK-10 renal
MDA-MB-435 = system: MDA-MB-435
SK-MEL-5 melanoma = system: SK-MEL-5 melanoma
KM12 colon = system: KM12 colon
SF-268 CNS = system: SF-268 CNS
OVCAR-3 ovarian = system: OVCAR-3 ovarian
COLO 205 colon = system: COLO 205 colon
HL-60(TB) leukemia = system: HL-60(TB) leukemia
LOX IMVI melanoma = system: LOX IMVI melanoma
K-562 leukemia = system: K-562 leukemia
HS 578T breast = system: HS 578T breast
RXF 393 renal = system: RXF 393 renal
SF-295 CNS = system: SF-295 CNS
OVCAR-8 ovarian = system: OVCAR-8 ovarian
DU-145 prostate = system: DU-145 prostate
SN12C renal = system: SN12C renal
UACC-62 melanoma = system: UACC-62 melanoma
MALME-3M melanoma = system: MALME-3M melanoma
SNB-75 CNS = system: SNB-75 CNS
RPMI-8226 leukemia = system: RPMI-8226 leukemia
A549 NSCLC = system: A549 NSCLC
786-0 renal = system: 786-0 renal
OVCAR-4 ovarian = system: OVCAR-4 ovarian
UO-31 renal = system: UO-31 renal
CCRF-CEM leukemia = system: CCRF-CEM leukemia
PC-3 prostate = system: PC-3 prostate
HCT-116 colon = system: HCT-116 colon
NCI/ADR-RES ovarian = system: NCI/ADR-RES ovarian
MDA-N = system: MDA-N
M14 melanoma = system: M14 melanoma
UACC-257 melanoma = system: UACC-257 melanoma
EKVX NSCLC = system: EKVX NSCLC
ACHN renal = system: ACHN renal
HCC-2998 colon = system: HCC-2998 colon
NCI-H522 lung = system: NCI-H522 lung
OVCAR-5 ovarian = system: OVCAR-5 ovarian

COc1ccc(-n2c3c(c4cc(O)ccc42)Cc2ccccc2C3=O)cc1
TGI (IGROV1 ovarian): > 100 µM | TGI (SF-539 CNS): > 100 µM | TGI (A498 renal): > 100 µM | TGI (HCT-15 colon): > 100 µM | TGI (CAKI-1 renal): > 100 µM | TGI (MOLT-4 leukemia): > 100 µM | TGI (SR leukemia): > 100 µM | TGI (SK-OV-3 ovarian): 57 µM | TGI (SNB-19 CNS): > 100 µM | TGI (BT-549 breast): > 100 µM | TGI (MCF7 breast): 79.7 µM | TGI (NCI-H23 lung): > 100 µM | TGI (SK-MEL-28 melanoma): > 100 µM | TGI (NCI-H226 lung): > 100 µM | TGI (HT29 colon): > 100 µM | TGI (NCI-H460 lung): > 100 µM | TGI (HOP-62 NSCLC): > 100 µM | TGI (SW-620 colon): > 100 µM | TGI (SK-MEL-2 melanoma): > 100 µM | TGI (U251 CNS): > 100 µM | TGI (MDA-MB-231 breast): > 100 µM | TGI (TK-10 renal): > 100 µM | TGI (MDA-MB-435): > 100 µM | TGI (SK-MEL-5 melanoma): > 100 µM | TGI (KM12 colon): > 100 µM | TGI (SF-268 CNS): > 100 µM | TGI (OVCAR-3 ovarian): > 100 µM | TGI (COLO 205 colon): 51 µM | TGI (HL-60(TB) leukemia): > 100 µM | TGI (LOX IMVI melanoma): > 100 µM | TGI (K-562 leukemia): > 100 µM | TGI (HS 578T breast): > 100 µM | TGI (RXF 393 renal): 9.38 µM | TGI (SF-295 CNS): 86.7 µM | TGI (OVCAR-8 ovarian): > 100 µM | TGI (DU-145 prostate): > 100 µM | TGI (SN12C renal): > 100 µM | TGI (UACC-62 melanoma): > 100 µM | TGI (MALME-3M melanoma): > 100 µM | TGI (SNB-75 CNS): 31.9 µM | TGI (RPMI-8226 leukemia): 32.7 µM | TGI (A549 NSCLC): > 100 µM | TGI (786-0 renal): > 100 µM | TGI (OVCAR-4 ovarian): 82.1 µM | TGI (UO-31 renal): > 100 µM | TGI (CCRF-CEM leukemia): 27.3 µM | TGI (PC-3 prostate): 15.3 µM | TGI (HCT-116 colon): > 100 µM | TGI (NCI/ADR-RES ovarian): > 100 µM | TGI (MDA-N): > 100 µM | TGI (M14 melanoma): > 100 µM | TGI (UACC-257 melanoma): > 100 µM

Cc1cc(S(=O)(=O)NC2=NCCN2Cc2ccccc2)c(S)cc1Cl
TGI (IGROV1 ovarian): > 100 µM | TGI (SF-539 CNS): > 100 µM | TGI (HCT-15 colon): > 100 µM | TGI (CAKI-1 renal): > 100 µM | TGI (MOLT-4 leukemia): > 100 µM | TGI (SK-OV-3 ovarian): > 100 µM | TGI (SNB-19 CNS): > 100 µM | TGI (EKVX NSCLC): > 100 µM | TGI (BT-549 breast): > 100 µM | TGI (MCF7 breast): > 100 µM | TGI (NCI-H23 lung): > 100 µM | TGI (SK-MEL-28 melanoma): > 100 µM | TGI (NCI-H226 lung): > 100 µM | TGI (ACHN renal): > 100 µM | TGI (HT29 colon): > 100 µM | TGI (NCI-H460 lung): > 100 µM | TGI (HOP-62 NSCLC): > 100 µM | TGI (SW-620 colon): > 100 µM | TGI (SK-MEL-2 melanoma): > 100 µM | TGI (U251 CNS): > 100 µM | TGI (MDA-MB-231 breast): > 100 µM | TGI (TK-10 renal): > 100 µM | TGI (HCC-2998 colon): > 100 µM | TGI (MDA-MB-435): > 100 µM | TGI (SK-MEL-5 melanoma): > 100 µM | TGI (KM12 colon): > 100 µM | TGI (SF-268 CNS): > 100 µM | TGI (OVCAR-3 ovarian): > 100 µM | TGI (NCI-H522 lung): > 100 µM | TGI (COLO 205 colon): > 100 µM | TGI (HL-60(TB) leukemia): > 100 µM | TGI (LOX IMVI melanoma): > 100 µM | TGI (OVCAR-5 ovarian): > 100 µM | TGI (K-562 leukemia): > 100 µM | TGI (SF-295 CNS): > 100 µM | TGI (OVCAR-8 ovarian): > 100 µM | TGI (DU-145 prostate): > 100 µM | TGI (SN12C renal): > 100 µM | TGI (UACC-62 melanoma): > 100 µM | TGI (MALME-3M melanoma): > 100 µM | TGI (SNB-75 CNS): > 100 µM | TGI (RPMI-8226 leukemia): > 100 µM | TGI (A549 NSCLC): > 100 µM | TGI (786-0 renal): > 100 µM | TGI (OVCAR-4 ovarian): > 100 µM | TGI (CCRF-CEM leukemia): > 100 µM | TGI (PC-3 prostate): > 100 µM | TGI (HCT-116 colon): > 100 µM | TGI (NCI/ADR-RES ovarian): > 100 µM | TGI (MDA-N): > 100 µM | TGI (M14 melanoma): > 100 µM | TGI (UACC-257 melanoma): > 100 µM
